Experimental data: patent US6013666A, “Oxirane carboxylic acid derivative and its manufacturing method” (Jew; Sang Sup, priority 1996, dated 2000)

Experiments:
[1] = tested on: male diabetes-induced Sprague-Dawley rats; test: Blood glucose lowering effects on streptozotocin diabetes-induced rats; type: in vivo; conditions: Rattus norvegicus; STZ diabetes-induced rats, 50 mg/kg oral; measured at 90, 120 and 180 mins, smallest values taken; read-out: Blood glucose lowering rate %
Experimental: Blood Glucose Lowering Effects of the Compounds Prepared by the Procedures of Example 1~6, 11~18
Two groups of male diabetes-induced Sprague-Dawley rats (each of 4-5 rats weighing about 250 g) were used for this experiment. 45 mg/kg of streptozotocin (STZ) dissolved in 0.1M citrate buffer (pH 4.5, 0-4° C.) was injected to the tail vein of fasted rats for 1 day. After elapse of 7 days, their blood glucose concentration were measured and animals having the blood serum concentration of more than 350 mg/dl were used as diabetes-induced rats for this experiment. The rats were intravenously administered at a daily dose of 1 ml/kg, while the normal control group received equal volume of 0.1M citrate buffer.
7 days after being treated with streptozotocin, diabetes-induced rats were orally administered at a dose of 50 mg/kg of the compounds prepared by the procedures of Examples 1-6, 11~18. Then, at time intervals of 90 mins, 120 mins and 180 mins, their blood glucose concentrations were measured and the smallest values were taken. The compounds of […] were dissolved in 30% ethanol until its final concentration became 2 ml/kg, while the control group was orally received equal volume of 30% ethanol.
Significant difference between two groups was determined by ANOVA test, together with a post hoc test using Newman-Keuls test.

[2] = phase II clinical trials; cited from earlier work
[3] = Acute toxicity test on rats, oral; type: in vivo; conditions: rat, in vivo, rats 200-250 g, dissolved in ethylacetate, calculated by number of killed animals
Experimental: (§1) The acute toxicity tests on rats were performed using the compound prepared by the procedure of the Example 1. Mature rats weighing 200-250 g were orally given the compound of the Example 1 dissolved in ethylacetate in parallel with its gradually increasing concentration.

Mature rats = test: Acute toxicity test on rats, oral; type: in vivo; conditions: rats
Experimental: as §1

Q: With CCOC(=O)C1(CCCCCCOCc2sccc2Cl)CO1 (stereo not drawn) [Example 18, Ethyl-2-[6-(3-chloro-2-thiophenemethoxy)hexyl]oxirane-2-carboxylic acid] as the molecule, how does the inhibition in vivo at 50 mg/kg [1] read?
A: 30.7%

Q: For CCOC(=O)C1(CCCCCCOCCc2cccs2)CO1 (stereo not drawn) [Example 16, Ethyl-2-[6-(2-thiophenethoxy)hexyl]oxirane-2-carboxylic acid], which inhibition in vivo at 50 mg/kg [1] is on record?
A: 5.6%

Q: For CCOC(=O)C1(CCCCCCOC(=O)c2ccc(OC)nc2OC)CO1 (stereo not drawn) [Example 4, Ethyl-2-[6-(2,6-dimethoxy-5-pyridincarboxyl)hexyl]-oxirane-2-carboxylic acid], which inhibition in vivo at 50 mg/kg [1] is on record?
A: 21.6%

Q: Which inhibition in vivo at 50 mg/kg [1] does the source give for CCOC(=O)C1(CCCCCCOCc2ccc(OC)s2)CO1 (stereo not drawn) [Example 13, Ethyl-2-[6-(5-methoxy-2-thiophenemethoxy)hexyl]oxirane-2-carboxylic acid] here?
A: 5.9%

Q: For CCOC(=O)C1(CCCCCCOC(=O)c2cncc(Br)c2)CO1 (stereo not drawn) [Example 3, Ethyl-2-[6-(5-bromo-3-pyridincarboxyl)hexyl]-oxirane-2-carboxylic acid], which inhibition in vivo at 50 mg/kg [1] is on record?
A: 8.1%

Q: Which inhibition in vivo at 50 mg/kg [1] does the source give for CCOC(=O)C1(CCCCCCOCc2ccc(C)s2)CO1 (stereo not drawn) [Example 14, Ethyl-2-[6-(5-methyl-2-thiophenemethoxy)hexyl]oxirane-2-carboxylic acid] here?
A: 33.7%

Q: With CCOC(=O)C1(CCCCCCOCc2cccs2)CO1 (stereo not drawn) [Example 11, Ethyl-2-[6-(2-thiophenemethoxy)hexyl]oxirane-2-carboxylic acid] as the molecule, how does the inhibition in vivo at 50 mg/kg [1] read?
A: 75.9%

Q: For CCOC(=O)C1(CCCCCCOC(=O)c2cccs2)CO1 (stereo not drawn) [Example 5, Ethyl-2-[6-(2-thiophenecarboxyl)hexyl]-oxirane-2-carboxylic acid], which inhibition in vivo at 50 mg/kg [1] is on record?
A: 16.8%

Q: For CCOC(=O)C1(CCCCCCOC(=O)c2cnc(C)cn2)CO1 (stereo not drawn) [Example 2, Ethyl-2-[6-(5-methyl-2-pyrazincarboxyl)hexyl]-oxirane-2-carboxylic acid], which inhibition in vivo at 50 mg/kg [1] is on record?
A: 28.2%

Q: With CCOC(=O)C1(CCCCCCOCc2ccc(Cl)s2)CO1 (stereo not drawn) [Example 17, Ethyl-2-[6-(5-chloro-2-thiophenemethoxy)hexyl]oxirane-2-carboxylic acid] as the molecule, how does the inhibition in vivo at 50 mg/kg [1] read?
A: 19.2%

Q: For CCOC(=O)C1(CCCCCCOC(=O)c2cnccn2)CO1 (stereo not drawn) [Example 6, Ethyl-2-[6-(2-pyrazincarboxyl)hexyl]-oxirane-2-carboxylic acid], which inhibition in vivo at 50 mg/kg [1] is on record?
A: 24.1%

Q: Which “side effects associated with prolonged administration” value [2] does the source give for CCOC(=O)[C@@]1(CCCCCCOc2ccc(Cl)cc2)CO1 [etomoxir] here?
A: enlarged heart and toxicity in the liver

Q: For CCOC(=O)C1(CCCCCCn2nc(C)cc2C)CO1 (stereo not drawn) [Example 12, Ethyl-2-[6-(3,5-dimethylpyrazole)hexyl]oxirane-2-carboxylic acid], which inhibition in vivo at 50 mg/kg [1] is on record?
A: 47%

Q: With CCOC(=O)C1(CCCCCCOCc2ccc(C)o2)CO1 (stereo not drawn) [Example 15, Ethyl-2-[6-(5-methyl-2-furanmethoxy)hexyl]oxirane-2-carboxylic acid] as the molecule, how does the inhibition in vivo at 50 mg/kg [1] read?
A: 6.8%

Q: With CCOC(=O)C1(CCCCCCOC(=O)c2ccc(Cl)cc2)CO1 (stereo not drawn) [Example 1, Ethyl-2-[6-(4-chlorophenylcarboxyl)hexyl]-oxirane-2-carboxylic acid] as the molecule, how does the inhibition in vivo at 50 mg/kg [1] read?
A: 11.8%

Q: What about the LD50 [3] of the same molecule?
A: 487 mg/kg

Q: And the “number of killed animals/number of animals per group” value (Mature rats; dose 160 mg/kg)?
A: 0/10

Q: What about the “number of killed animals/number of animals per group” value (Mature rats; dose 300 mg/kg) of the same molecule?
A: 1/10

Q: What about the “number of killed animals/number of animals per group” value (Mature rats; dose 400 mg/kg) of the same molecule?
A: 2/10

Q: What about the “number of killed animals/number of animals per group” value (Mature rats; dose 500 mg/kg) of the same molecule?
A: 5/10

Q: And the “number of killed animals/number of animals per group” value (Mature rats; dose 600 mg/kg)?
A: 8/10
